Test results published in paper PMC5286421, “Interactions of retinoids with the ABC transporters P-glycoprotein and Breast Cancer Resistance Protein” (Scientific Reports, 2017).
Where two headings read alike, the source gives them in different places.

Columns and labels:
ABCG2 [1] = biological target: T1, ABCG2 (Homo sapiens, UniProt Q9UNQ0); assay: Vanadate-sensitive ATPase activity of ABCG2 in Sf9 membrane preparations; type: biochemical; conditions: for IC50 values, ABCG2 stimulated (quercetin-stimulated) ATPase activity / IC50 values, ABCG2 basal ATPase activity / IC50: cholesterol-loaded Sf9 membranes, mean ± SEM, n=3; for Change of apparent KM of quercetin-stimulated ABCG2 ATPase activity / Change of vmax of quercetin-stimulated ABCG2 ATPase activity: Figs 5 and 6; for Type of inhibition of the quercetin-stimulated ATPase activity of ABCG2: modified Michaelis-Menten fit at different quercetin concentrations
T1 sequence (Q9UNQ0 1-655): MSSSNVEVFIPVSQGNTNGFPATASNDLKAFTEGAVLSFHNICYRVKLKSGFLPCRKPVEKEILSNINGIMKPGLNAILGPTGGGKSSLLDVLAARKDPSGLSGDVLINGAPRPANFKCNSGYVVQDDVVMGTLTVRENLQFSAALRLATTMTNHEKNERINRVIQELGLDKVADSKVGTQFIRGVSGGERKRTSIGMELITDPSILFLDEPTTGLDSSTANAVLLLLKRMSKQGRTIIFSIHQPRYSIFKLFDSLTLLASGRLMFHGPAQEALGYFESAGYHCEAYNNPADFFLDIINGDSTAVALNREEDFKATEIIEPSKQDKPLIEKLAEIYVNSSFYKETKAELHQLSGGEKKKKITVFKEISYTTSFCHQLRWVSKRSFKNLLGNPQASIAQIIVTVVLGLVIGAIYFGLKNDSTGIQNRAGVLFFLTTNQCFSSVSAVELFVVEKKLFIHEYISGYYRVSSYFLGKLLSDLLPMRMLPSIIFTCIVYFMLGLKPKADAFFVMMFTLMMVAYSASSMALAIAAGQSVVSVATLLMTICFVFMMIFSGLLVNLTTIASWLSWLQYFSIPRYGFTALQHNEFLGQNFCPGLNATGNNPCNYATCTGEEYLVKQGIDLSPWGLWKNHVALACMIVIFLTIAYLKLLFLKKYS
Description: For ATPase activity measurements we used membrane samples derived from Sf9 (Spodoptera frugiperda) insect ovarian cells expressing human Pgp or ABCG2. cDNAs of the transporters were cloned into recombinant baculovirus transfer vectors, the Sf9 insect ovarian cells were cultured, and infected with the baculoviruses as described in ref. [52]. Sf9 cells overexpressing human Pgp and ABCG2 were harvested and cell membranes were isolated. The protein concentration of the membrane samples were determined by the Lowry method. The ABCG2 expressing Sf9 membrane samples were loaded with cholesterol by cholesterol-methyl-beta-cyclodextrine complex in order to obtain high specific ATPase activity of the transporter. Membrane samples were stored at −80 °C. The transporter expression of the membrane samples (5 μg membrane protein/slot) was routinely checked by immunoblot using the G-1 mAb (for Pgp) or BXP-21 mAb (for ABCG2) and a goat anti-mouse HRP-conjugated IgG secondary antibody. Both primary and secondary antibodies were from Santa Cruz Biotechnology Inc. (CA, USA) and applied at 1:5,000 dilution.
The vanadate-sensitive ATPase activity of Pgp and ABCG2 was determined by a colorimetric assay described in refs [32],[55]. Specific ATPase activity of the transporters was calculated from the amount of released inorganic phosphate. […]. The absorbance of the samples was measured at 700 nm using a BioTek Synergy HT plate reader (BioTek Instruments, Winooski, USA).
The half-inhibitory doses (IC50) of retinoids were determined by fitting the dose-response relationships with a four parameter sigmoidal curve, where Amax and Amin are the ATPase activities measured at zero and at infinitely high inhibitor concentrations, respectively, n is the Hill coefficient and x is the concentration of the inhibitor:
Upon studying the kinetics of inhibition of the substrate-stimulated ATPase activity by retinoids data points were fitted with a modified form of the Michaelis-Menten equation[56] which includes the Hill coefficient, n: […]
v0 is the basal ATPase activity measured in the absence of the stimulatory substrate, while vmax is the maximal extent of ATPase stimulation and KM is the Michaelis constant (i.e. the substrate concentration at which the reaction rate is half of vmax).

Pgp [2] = biological target: T2, Pgp (Homo sapiens, UniProt P08183); conditions: for IC50 values, Pgp stimulated (verapamil-stimulated) ATPase activity: 40 μM verapamil; for IC50 values, Pgp stimulated (verapamil-stimulated) ATPase activity / IC50 values, Pgp basal ATPase activity: Sf9 membranes, mean ± SEM, n=3; for IC50 values, Pgp basal ATPase activity: 10 min pre-incubation 37 °C, 3 mM ATP/Mg2+ 25 min; for Change of apparent KM of verapamil-stimulated Pgp ATPase activity / Change of vmax of verapamil-stimulated Pgp ATPase activity: Figs 5 and 6; for Type of inhibition of the verapamil-stimulated ATPase activity of Pgp: modified Michaelis-Menten fit at different verapamil concentrations
Description: (§1) For ATPase activity measurements we used membrane samples derived from Sf9 (Spodoptera frugiperda) insect ovarian cells expressing human Pgp or ABCG2. cDNAs of the transporters were cloned into recombinant baculovirus transfer vectors, the Sf9 insect ovarian cells were cultured, and infected with the baculoviruses as described in ref. [52]. Sf9 cells overexpressing human Pgp and ABCG2 were harvested and cell membranes were isolated. The protein concentration of the membrane samples were determined by the Lowry method[53]. The ABCG2 expressing Sf9 membrane samples were loaded with cholesterol by cholesterol-methyl-beta-cyclodextrine complex in order to obtain high specific ATPase activity of the transporter[54]. Membrane samples were stored at −80 °C. The transporter expression of the membrane samples (5 μg membrane protein/slot) was routinely checked by immunoblot using the G-1 mAb (for Pgp) or BXP-21 mAb (for ABCG2) and a goat anti-mouse HRP-conjugated IgG secondary antibody. Both primary and secondary antibodies were from Santa Cruz Biotechnology Inc. (CA, USA) and applied at 1:5,000 dilution.
(§2) The vanadate-sensitive ATPase activity of Pgp and ABCG2 was determined by a colorimetric assay described in refs [32],[55]. Specific ATPase activity of the transporters was calculated from the amount of released inorganic phosphate. […] The absorbance of the samples was measured at 700 nm using a BioTek Synergy HT plate reader (BioTek Instruments, Winooski, USA).

[3] = system: NIH 3T3 / NIH 3T3 MDR1 and MDCK / MDCK ABCG2 cells; assay: DPH steady-state fluorescence anisotropy (membrane fluidity); conditions: retinoids 100 μM; for Effect on DPH fluorescence anisotropy: cyclosporin 10 μM, Ko143 2 μM, 10 min 37 °C, all tested cell lines; for Effect on DPH anisotropy in transporter expressing compared to non-expressing cells: Pgp+ vs Pgp− NIH 3T3, ABCG2 expressing vs non-expressing MDCK
Pgp [4] = biological target: T2, Pgp; assay: Calcein accumulation test (Pgp transport activity) in NIH 3T3 MDR1 cells; conditions: 20 min pre-treatment 37 °C, 500 nM calcein-AM 20 min
Description: (§3) Calcein-AM was applied to measure the transport activity of Pgp[51], while ABCG2 mediated transport was measured in mitoxantrone accumulation tests[18]. Cells were harvested and washed three times in PBS containing 7 mM glucose (gl-PBS). […] Dead cells were excluded from the analysis on the basis of propidium iodide (PI) staining.
(§4) Flow cytometric analysis was carried out on a Becton Dickinson FACSAria III Cell Sorter (Becton Dickinson, Mountain View, CA, USA). Calcein was excited by the 488 nm line of a solid state laser and the emitted light was detected using a 502 nm dichroic mirror and a 530/30 nm band-pass filter. […] AlexaFluor647 and mitoxantrone signals were detected with a 633 nm excitation laser and a 660/20 nm band-pass filter.

ABCG2 [5] = biological target: T1, ABCG2; assay: Mitoxantrone accumulation test (ABCG2 transport activity) in MDCK ABCG2 cells; conditions: 20 min pre-treatment 37 °C, 5 μM mitoxantrone 40 min
Description: as §3, §4

[6] = system: Pgp- and ABCG2-negative NIH 3T3 and MDCK cells; assay: Calcein and mitoxantrone accumulation in transporter negative cells; type: cell-based, mouse / canine; conditions: NIH 3T3 (calcein) and MDCK (mitoxantrone), Supplementary Fig. S1, 50 µM
Description: Supplementary Fig. S1: Effect of retinoid derivatives on the calcein (a) and
mitoxantrone (c) accumulation and viability (b, d) of Pgp- and ABCG2-negative NIH
3T3 and MDCK cells. Cells were pre-treated with retinoids added at 50 µM concentration
Cell viability was determined on the basis of propidium iodide exclusion.
(1 picture or pasted object on this page, not shown here)

[7] = cited from earlier work; for Plasma concentrations resulting from chemotherapy use: treatment of neuroblastoma or squamous cell carcinoma, ref [24][25][26]
Pgp [8] = biological target: T2, Pgp; assay: biochemical; conditions: IC50 values, Sf9 membranes, mean ± SEM, n=3
Description: as §1, §2

[9] = cited from earlier work
[10] = system: NIH 3T3 / NIH 3T3 MDR1 and MDCK / MDCK ABCG2 cells; assay: TMA-DPH steady-state fluorescence anisotropy (membrane fluidity); conditions: 100 μM; NIH 3T3 and NIH 3T3 MDR1 cells
[11] = 10 μM quercetin, read-out: IC50 values, ABCG2 stimulated (quercetin-stimulated) ATPase activity
[12] = read-out: IC50 values, ABCG2 basal ATPase activity
[13] = Pgp basal ATPase activity, 10 min pre-incubation 37 °C, 3 mM ATP/Mg2+ 25 min
[14] = Pgp stimulated (verapamil-stimulated) ATPase activity, 40 μM verapamil

T2 sequence (P08183 whole entry): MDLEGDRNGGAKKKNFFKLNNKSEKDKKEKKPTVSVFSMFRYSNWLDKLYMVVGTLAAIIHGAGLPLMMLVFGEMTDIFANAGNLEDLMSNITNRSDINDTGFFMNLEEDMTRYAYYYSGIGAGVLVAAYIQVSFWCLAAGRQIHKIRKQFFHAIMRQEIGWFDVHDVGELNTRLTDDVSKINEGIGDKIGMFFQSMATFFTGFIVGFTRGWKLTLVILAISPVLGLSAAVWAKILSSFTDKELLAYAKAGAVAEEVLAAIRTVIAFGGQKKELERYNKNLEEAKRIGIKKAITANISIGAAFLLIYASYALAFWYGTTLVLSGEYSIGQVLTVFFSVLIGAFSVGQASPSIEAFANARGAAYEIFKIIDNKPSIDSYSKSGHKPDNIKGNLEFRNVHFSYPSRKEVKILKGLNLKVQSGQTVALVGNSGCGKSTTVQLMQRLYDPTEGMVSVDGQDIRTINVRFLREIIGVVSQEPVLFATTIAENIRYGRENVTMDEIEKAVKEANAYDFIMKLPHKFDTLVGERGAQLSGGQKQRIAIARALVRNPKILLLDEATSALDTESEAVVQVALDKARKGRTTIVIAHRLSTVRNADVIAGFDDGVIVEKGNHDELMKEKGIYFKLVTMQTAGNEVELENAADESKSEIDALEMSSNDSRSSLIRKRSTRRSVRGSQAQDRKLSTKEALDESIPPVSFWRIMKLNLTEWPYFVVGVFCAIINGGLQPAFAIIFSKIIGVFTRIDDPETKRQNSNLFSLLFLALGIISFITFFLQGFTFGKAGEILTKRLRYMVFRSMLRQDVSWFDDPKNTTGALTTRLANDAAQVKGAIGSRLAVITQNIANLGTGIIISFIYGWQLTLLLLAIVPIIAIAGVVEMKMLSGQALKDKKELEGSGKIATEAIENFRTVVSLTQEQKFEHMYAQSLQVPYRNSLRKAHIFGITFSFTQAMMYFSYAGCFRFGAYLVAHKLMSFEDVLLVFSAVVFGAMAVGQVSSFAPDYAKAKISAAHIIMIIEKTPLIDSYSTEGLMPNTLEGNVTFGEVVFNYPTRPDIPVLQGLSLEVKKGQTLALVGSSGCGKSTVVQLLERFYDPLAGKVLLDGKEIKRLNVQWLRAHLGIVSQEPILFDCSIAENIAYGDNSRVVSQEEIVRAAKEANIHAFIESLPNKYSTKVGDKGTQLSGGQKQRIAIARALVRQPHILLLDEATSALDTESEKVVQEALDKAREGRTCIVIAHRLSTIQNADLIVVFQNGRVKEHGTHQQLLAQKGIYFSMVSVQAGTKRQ

Structure (SMILES)	IC50 values, ABCG2 stimulated (quercetin-stimulated) ATPase activity (ABCG2 [1]; 10 μM quercetin)	IC50 values, ABCG2 basal ATPase activity (ABCG2 [1])	IC50 values, Pgp stimulated (verapamil-stimulated) ATPase activity (Pgp [2])	IC50 values, Pgp basal ATPase activity (Pgp [2])	Effect on DPH fluorescence anisotropy [3]	Effect on calcein accumulation of Pgp expressing cells (Pgp transport activity) (Pgp [4])	Effect on mitoxantrone accumulation of ABCG2 expressing cells (ABCG2 transport activity) (ABCG2 [5])	also measured
CC1=C(/C=C/C(C)=C\C=C\C(C)=C\C(=O)O)C(C)(C)CCC1 [9-cis-retinoic acid]	No effect	No effect	No effect	No effect	did not have any effect	none of them had any effect	none of them had any effect	–
CC1=C(/C=C/C(C)=C/C=C/C(C)=C\C(=O)O)C(C)(C)CCC1 [13-cis-retinoic acid]	–	–	–	–	increased the DPH fluorescence anisotropy values significantly	increased the cellular accumulation of the fluorescent transporter substrates in a concentration dependent manner	increased the cellular accumulation of the fluorescent transporter substrates in a concentration dependent manner	Effect on substrate accumulation of transporter negative cells [6]: did not have any effect; IC50 (ABCG2 [1]; [11]): 76.5 ± 2.3 µM; Change of apparent KM of quercetin-stimulated ABCG2 ATPase activity (ABCG2 [1]): apparent increase of the KMvalues; Change of vmax of quercetin-stimulated ABCG2 ATPase activity (ABCG2 [1]): decreased the vmax value; IC50 (ABCG2 [1]; [12]): 70.6 ± 9 µM; Type of inhibition of the quercetin-stimulated ATPase activity of ABCG2 (ABCG2 [1]): mixed-type transporter inhibition; Change of apparent KM of verapamil-stimulated Pgp ATPase activity (Pgp [2]): did not induce statistically significant KM increase; Change of vmax of verapamil-stimulated Pgp ATPase activity (Pgp [2]): decreased the vmax; Type of inhibition of the verapamil-stimulated ATPase activity of Pgp (Pgp [2]): inhibits Pgp only non-competitively; Plasma concentrations resulting from chemotherapy use [7]: 10 to 20 µM; IC50 (Pgp [8]; [13]): 60.5 ± 11.4 µM; IC50 (Pgp [8]; [14]): 26.8 ± 2 µM; Effect on DPH anisotropy in transporter expressing compared to non-expressing cells [3]: similarly
CC1=C(/C=C/C(C)=C/C=C/C(C)=C/C(=O)O)C(C)(C)CCC1=O [All-trans-4-oxo-retinoic acid, all-trans-4-oxo-retinoic acid]	No effect	No effect	Weak inhibition	No effect	–	–	–	–
CC1=C(/C=C/C(C)=C/C=C/C(C)=C/C(=O)O)C(C)(C)CCC1 [All-trans-retinoic-acid, all-trans retinoic acid]	No effect	No effect	No effect	No effect	did not have any effect	none of them had any effect	none of them had any effect	Plasma concentrations resulting from chemotherapy use [7]: 10 to 20 µM
CC1=C(/C=C/C(C)=C/C=C/C(C)=C/CO)C(C)(C)CCC1 [Retinol]	–	–	–	–	increased the DPH fluorescence anisotropy values significantly	increased the cellular accumulation of the fluorescent transporter substrates in a concentration dependent manner	increased the cellular accumulation of the fluorescent transporter substrates in a concentration dependent manner	Effect on substrate accumulation of transporter negative cells [6]: did not have any effect; IC50 (ABCG2 [1]; [11]): 95.2 ± 10.6 µM; Change of apparent KM of quercetin-stimulated ABCG2 ATPase activity (ABCG2 [1]): increased the KM; Change of vmax of quercetin-stimulated ABCG2 ATPase activity (ABCG2 [1]): decreased the vmax; IC50 (ABCG2 [1]; [12]): 31.6 ± 4.2 µM; Type of inhibition of the quercetin-stimulated ATPase activity of ABCG2 (ABCG2 [1]): mixed-type transporter inhibition; Change of apparent KM of verapamil-stimulated Pgp ATPase activity (Pgp [2]): increased the KM; Change of vmax of verapamil-stimulated Pgp ATPase activity (Pgp [2]): decreased the vmax; Type of inhibition of the verapamil-stimulated ATPase activity of Pgp (Pgp [2]): mixed-type transporter inhibition; Concentration present in the plasma (physiological) ([7]; ref [20]): 1–2 micromolar; LogP (octanol-water partition coefficient, LogPow) ([9]; ref PubChem Compound Database (CID)): 5.7; IC50 (Pgp [8]; [13]): 23.5 ± 4 µM; IC50 (Pgp [8]; [14]): 27.9 ± 0.7 µM; Effect on DPH anisotropy in transporter expressing compared to non-expressing cells [3]: similarly
CCCCCCCCCCCCCCCC(=O)OC/C=C(C)/C=C/C=C(C)/C=C/C1=C(C)CCCC1(C)C [Retiny-palmitate, Retinyl-palmitate]	No effect	No effect	No effect	No effect	–	none of them had any effect	none of them had any effect	Effect on TMA-DPH fluorescence anisotropy, NIH 3T3 cell pair [10]: decreased the TMA-DPH anisotropies significantly
CCC(=O)OC/C=C(C)/C=C/C=C(C)/C=C/C1=C(C)CCCC1(C)C [Retinyl-propionate]	No effect	No effect	No effect	No effect	–	none of them had any effect	none of them had any effect	–
O=c1c(O)c(-c2ccc(O)c(O)c2)oc2cc(O)cc(O)c12 [quercetin]	–	–	–	–	–	–	–	Stimulated ATPase activity of ABCG2 (ABCG2 [1]; 10 μM quercetin): 60–70 nmol Pi/ mg protein/min; Stimulation of ABCG2 ATPase activity (ABCG2 [1]; 10 μM quercetin, maximum stimulation): ~2 fold; LogP (octanol-water partition coefficient, LogPow) ([9]; ref 2 (Rothwell et al., 2005)): 1.8
